From article PMC6073568, “Efficient Lead Finding, Activity Enhancement and Preliminary Selectivity Control of Nuclear Receptor Ligands Bearing a Phenanthridinone Skeleton” (International Journal of Molecular Sciences, 2018)
pIC50: −log10 of the molar value.

How the values were obtained:
RORα = biological target: T1, RORα (Homo sapiens, UniProt P35398); assay: RORα inverse agonist reporter gene assay in HEK293; type: cell-based; settings: new compound 43, read-out: RORα inverse agonistic activity (IC50)
T1 construct: expressed in transfected cells; host or cells: HEK293
T1 sequence (P35398 1-523): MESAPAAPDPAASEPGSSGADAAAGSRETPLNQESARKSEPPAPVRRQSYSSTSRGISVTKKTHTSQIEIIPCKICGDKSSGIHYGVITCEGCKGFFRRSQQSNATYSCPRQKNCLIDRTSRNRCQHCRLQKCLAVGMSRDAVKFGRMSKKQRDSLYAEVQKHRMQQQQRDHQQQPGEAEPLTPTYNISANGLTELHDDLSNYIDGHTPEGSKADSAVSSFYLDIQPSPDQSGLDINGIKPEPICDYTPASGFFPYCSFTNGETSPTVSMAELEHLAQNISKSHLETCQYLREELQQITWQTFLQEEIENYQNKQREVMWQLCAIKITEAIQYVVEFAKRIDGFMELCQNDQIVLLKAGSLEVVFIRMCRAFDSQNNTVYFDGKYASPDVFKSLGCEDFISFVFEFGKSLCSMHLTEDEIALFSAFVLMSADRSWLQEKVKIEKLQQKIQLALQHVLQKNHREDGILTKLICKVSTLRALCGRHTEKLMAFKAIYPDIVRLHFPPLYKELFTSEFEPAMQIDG

RORγ = biological target: T2, RORγ (Homo sapiens, UniProt P51449); assay: RORγ inverse agonist reporter gene assay in HEK293; type: cell-based; settings: new compound 43, read-out: RORγ inverse agonistic activity (IC50)
T2 construct: expressed in transfected cells; host or cells: HEK293
T2 sequence (P51449 1-518): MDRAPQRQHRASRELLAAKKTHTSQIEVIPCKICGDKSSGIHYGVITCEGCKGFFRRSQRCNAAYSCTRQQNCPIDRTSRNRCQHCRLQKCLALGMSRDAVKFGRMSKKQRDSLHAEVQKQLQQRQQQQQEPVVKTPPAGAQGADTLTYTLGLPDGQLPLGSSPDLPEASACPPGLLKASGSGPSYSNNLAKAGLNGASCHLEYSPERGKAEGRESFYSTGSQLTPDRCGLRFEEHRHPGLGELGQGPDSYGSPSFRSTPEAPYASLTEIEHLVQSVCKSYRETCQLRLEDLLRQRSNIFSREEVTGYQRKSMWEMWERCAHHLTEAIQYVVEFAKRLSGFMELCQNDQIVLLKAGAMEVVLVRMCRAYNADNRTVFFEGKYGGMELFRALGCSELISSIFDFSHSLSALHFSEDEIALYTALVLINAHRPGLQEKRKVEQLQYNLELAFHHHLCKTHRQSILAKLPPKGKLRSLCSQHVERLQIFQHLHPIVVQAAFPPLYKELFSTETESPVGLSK

LXRα = biological target: T3, LXRα (Homo sapiens, UniProt Q13133); settings: read-out: LXRα antagonistic activity (IC50); cited from earlier work
T3 construct: CMX-GAL4N-hLXRα-LBD; expressed in transfected cells; host or cells: HEK293
T3 sequence (Q13133 209-447 limits assumed): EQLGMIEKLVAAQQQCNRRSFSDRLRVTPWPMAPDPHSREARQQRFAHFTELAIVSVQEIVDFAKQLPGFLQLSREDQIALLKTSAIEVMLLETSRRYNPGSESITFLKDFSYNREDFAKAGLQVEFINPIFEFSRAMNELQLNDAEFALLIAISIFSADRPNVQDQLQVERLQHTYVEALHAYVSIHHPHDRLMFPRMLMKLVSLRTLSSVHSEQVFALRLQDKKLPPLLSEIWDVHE

pIC50 (RORα)	pIC50 (RORγ)	SMILES	pIC50 (LXRα)
< 4.70	< 4.70	O=c1[nH]c2c(Cl)cc(C(O)(C(F)(F)F)C(F)(F)F)cc2c2ccccc12 [Compound 43, 4-Chloro-2-(1,1,1,3,3,3-hexafluoro-2-hydroxypropan-2-yl)phenanthridin-6(5H)-one]	
		O=c1[nH]c2ccc(C(O)(C(F)(F)F)C(F)(F)F)cc2c2ccccc12 [Compound 1]	5.30
